The target in assay [1] is T1, human PR (progesterone receptor) (Homo sapiens, UniProt P06401).
T1 construct: expressed in transfected cells; host or cells: HEK293
T1 sequence (P06401 1-933): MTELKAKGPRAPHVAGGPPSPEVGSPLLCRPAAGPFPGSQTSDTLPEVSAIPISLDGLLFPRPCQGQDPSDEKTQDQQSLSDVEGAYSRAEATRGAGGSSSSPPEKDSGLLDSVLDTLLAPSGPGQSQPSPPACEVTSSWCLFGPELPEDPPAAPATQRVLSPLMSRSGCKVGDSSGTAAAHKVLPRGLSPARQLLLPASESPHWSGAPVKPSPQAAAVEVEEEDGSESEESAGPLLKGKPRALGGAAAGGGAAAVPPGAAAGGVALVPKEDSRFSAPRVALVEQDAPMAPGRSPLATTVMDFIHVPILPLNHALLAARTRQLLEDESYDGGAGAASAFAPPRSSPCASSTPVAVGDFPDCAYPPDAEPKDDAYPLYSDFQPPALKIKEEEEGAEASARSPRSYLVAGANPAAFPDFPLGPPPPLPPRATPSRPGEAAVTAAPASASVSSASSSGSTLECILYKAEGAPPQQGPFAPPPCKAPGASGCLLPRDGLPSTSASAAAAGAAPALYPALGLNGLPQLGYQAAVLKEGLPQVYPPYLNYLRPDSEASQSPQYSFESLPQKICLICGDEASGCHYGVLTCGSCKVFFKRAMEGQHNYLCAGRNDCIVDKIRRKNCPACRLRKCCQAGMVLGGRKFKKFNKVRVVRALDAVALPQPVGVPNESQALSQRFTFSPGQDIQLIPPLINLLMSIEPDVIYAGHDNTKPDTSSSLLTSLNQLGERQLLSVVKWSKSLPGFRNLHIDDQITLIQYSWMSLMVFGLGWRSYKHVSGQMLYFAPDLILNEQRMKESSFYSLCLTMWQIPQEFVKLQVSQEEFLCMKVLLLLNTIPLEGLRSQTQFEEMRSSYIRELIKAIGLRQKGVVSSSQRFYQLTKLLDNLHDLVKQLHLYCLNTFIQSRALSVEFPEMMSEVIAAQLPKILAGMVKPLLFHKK
The assay can be described thus: PR competition binding assay (HEK293 cell lysate). Particulars: 0.29 nM 3H-methyltrienolone, 293-PR lysate. The procedure: (§1) Cell lysates from HEK293 cells overexpressing human GR (glucocorticoid receptor), AR (androgen receptor), MR (mineralocorticoid receptor) or PR (progesterone receptor) are used for competition binding assays to determine Ki values for compounds of interest. Briefly, competition binding assays are run in a buffer containing 20 mM HEPES, pH 7.6, 0.2 mM EDTA, 75 mM NaCl, 1.5 mM MgCl2, 20% glycerol, 20 mM sodium molybdate, 0.2 mM DTT, 20 ug/ml aprotinin, and 20 ug/ml leupeptin, using either 0.3 nM ^3H-dexamethasone for GR binding, 0.36 nM ^3H-methyltrienolone for AR binding, 0.25 nM ^3H-aldosterone for MR binding, or 0.29 nM ^3H-methyltrienolone for PR binding, and either 20 ug 293-GR lysate, 22 ug 293-AR lysate, 20 ug 293-MR lysate or 40 ug 293-PR lysate per well. Competing compounds are added at various concentrations in half-log increments. Non-specific binding is determined in the presence of 500 nM dexamethasone for GR binding, 500 nM aldosterone for MR binding, or 500 nM methyltrienolone for AR and PR binding. The binding reaction (140 μl) is incubated overnight at 4° C., then 70 μl of cold charcoal-dextran buffer (containing per 50 ml of assay buffer, 0.75 g of charcoal and 0.25 g of dextran) is added to each reaction. Plates are mixed 8 minutes on an orbital shaker at 4° C. Plates are then centrifuged at 3,000 rpm at 4° C. for 10 minutes. An aliquot of 120 μl of the mixture is transferred to another 96-well plate and 175 μl of Wallac Optiphase “Hisafe 3” scintillation fluid is added to each well. Plates are sealed and shaken vigorously on an orbital shaker. After an incubation of 2 hrs, plates are read in a Wallac Microbeta counter. […] The Kd for ^3H-dexamethasone for GR binding, ^3H-methyltrienolone for AR binding, ^3H-aldosterone for MR binding, or ^3H-methyltrienolone for PR binding, is determined by saturation binding. The IC50 values for compounds are converted to Ki using Cheng-Prusoff equation and the Kd determined by saturation binding assay.
More preferably the compounds of the present invention have PR binding value K; of <10 nM.

The target of assay [2] is T2, human MR (mineralocorticoid receptor) (Homo sapiens, UniProt P08235).
T2 construct: expressed in transfected cells; host or cells: HEK293
T2 sequence (P08235 1-984): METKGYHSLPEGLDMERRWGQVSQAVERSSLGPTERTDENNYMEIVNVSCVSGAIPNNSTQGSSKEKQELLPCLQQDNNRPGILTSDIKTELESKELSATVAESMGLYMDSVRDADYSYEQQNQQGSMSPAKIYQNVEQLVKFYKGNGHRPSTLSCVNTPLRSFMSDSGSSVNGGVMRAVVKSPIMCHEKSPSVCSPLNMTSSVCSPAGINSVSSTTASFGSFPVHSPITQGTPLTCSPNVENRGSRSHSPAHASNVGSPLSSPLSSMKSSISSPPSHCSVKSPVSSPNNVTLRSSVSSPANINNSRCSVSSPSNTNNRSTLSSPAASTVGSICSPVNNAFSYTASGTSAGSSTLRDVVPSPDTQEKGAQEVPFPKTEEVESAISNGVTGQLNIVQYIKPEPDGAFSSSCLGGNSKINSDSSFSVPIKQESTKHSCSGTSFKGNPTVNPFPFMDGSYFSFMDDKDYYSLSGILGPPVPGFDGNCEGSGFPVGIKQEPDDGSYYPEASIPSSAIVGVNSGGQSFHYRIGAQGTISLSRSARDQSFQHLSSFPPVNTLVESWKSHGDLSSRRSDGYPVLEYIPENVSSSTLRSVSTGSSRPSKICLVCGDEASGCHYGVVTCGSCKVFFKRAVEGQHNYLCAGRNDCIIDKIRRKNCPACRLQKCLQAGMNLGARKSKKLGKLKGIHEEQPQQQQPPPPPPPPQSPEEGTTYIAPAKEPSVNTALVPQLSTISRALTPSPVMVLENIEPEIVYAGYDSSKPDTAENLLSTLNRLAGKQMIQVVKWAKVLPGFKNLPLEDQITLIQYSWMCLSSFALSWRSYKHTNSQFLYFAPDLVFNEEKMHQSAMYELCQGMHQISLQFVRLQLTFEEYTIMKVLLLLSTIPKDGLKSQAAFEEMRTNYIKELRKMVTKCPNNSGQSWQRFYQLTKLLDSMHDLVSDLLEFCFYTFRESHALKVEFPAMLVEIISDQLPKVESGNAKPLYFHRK
The assay can be described thus: MR competition binding assay (HEK293 cell lysate). Conditions: 0.25 nM 3H-aldosterone, 293-MR lysate. As to the method:
as §1

`Cn1cc(-c2ccc(C#N)cc2)c2ccc(NS(C)(=O)=O)cc21` [Example 25, N-[3-(4-Cyano-phenyl)-1-methyl-1H-indol-6-yl]-methanesulfonamide]: the Ki is less than 50 nM in assay [1] and greater than 1000 nM in assay [2].

As to `CC(C)n1cc(-c2ccc(C#N)cc2)c2ccc(NS(C)(=O)=O)cc21` [Example 28, N-[3-(4-Cyano-phenyl)-1-isopropyl-1H-indol-6-yl]-methanesulfonamide], the Ki in assay [1] is less than 50 nM; in assay [2], greater than 1000 nM.

As to `CC(C)Cn1cc(-c2ccc(C#N)cc2)c2ccc(NS(C)(=O)=O)cc21` [Example 29, N-[3-(4-Cyano-phenyl)-1-isobutyl-1H-indol-6-yl]-methanesulfonamide], the Ki in assay [1] is less than 50 nM; in assay [2], 500 to 1000 nM.

With `Cn1cc(-c2ccc([N+](=O)[O-])cc2)c2ccc(NS(C)(=O)=O)cc21` [Example 30, N-[1-Methyl-3-(4-nitro-phenyl)-1H-indol-6-yl]-methanesulfonamide], the Ki was less than 50 nM in assay [1] and greater than 1000 nM in assay [2].

For the compound `Cn1cc(-c2ccc(C#N)cc2)c2ccc(NS(=O)(=O)c3cccs3)cc21` [Example 32, Thiophene-2-sulfonic acid [3-(4-cyano-phenyl)-1-methyl-1H-indol-6-yl]-amide], the values for the Ki in assay [1] and in assay [2] were less than 50 nM and greater than 1000 nM, respectively.

As to `CC(C)n1cc(-c2ccc(Cl)cc2)c2ccc(NS(C)(=O)=O)cc21` [Example 36, N-[3-(4-Chloro-phenyl)-1-isopropyl-1H-indol-6-yl]-methanesulfonamide], the inhibition constant Ki in assay [1] is less than 50 nM; in assay [2] it was greater than 1000 nM.

Take `CC(C)n1cc(-c2ccc(C#N)c(F)c2)c2ccc(NS(C)(=O)=O)cc21` [Example 38, N-[3-(4-Cyano-3-fluoro-phenyl)-1-isopropyl-1H-indol-6-yl]-methanesulfonamide]: the Ki in assay [1] is less than 50 nM; in assay [2], 500 to 1000 nM.

For `CC(C)n1cc(-c2ccc(C#N)s2)c2ccc(NS(C)(=O)=O)cc21` [Example 43, N-[3-(5-Cyano-thiophen-2-yl)-1-isopropyl-1H-indol-6-yl]-methanesulfonamide], the Ki in assay [1] is less than 50 nM; in assay [2], 100 to 500 nM.

As to `CS(=O)(=O)Nc1ccc2c(-c3ccc(C#N)cc3)cn(C3CCCC3)c2c1` [Example 63, N-[3-(4-Cyano-phenyl)-1-cyclopentyl-1H-indol-6-yl]-methanesulfonamide], the Ki was less than 50 nM in assay [1] and greater than 1000 nM in assay [2].

`CS(=O)(=O)Nc1ccc2c(-c3ccc(C#N)cc3)cn(Cc3ccccc3)c2c1` [Example 72, N-[1-Benzyl-3-(4-cyano-phenyl)-1H-indol-6-yl]-methanesulfonamide]: the Ki in assay [1] and in assay [2] was less than 50 nM in each case.

Turning to `CCOC(=O)c1ccc(-c2cn(C(C)C)c3cc(NS(C)(=O)=O)ccc23)cc1` [Example 74, 4-(1-Isopropyl-6-methanesulfonylamino-1H-indol-3-yl)-benzoic acid ethyl ester], the inhibition constant Ki is less than 50 nM in assay [1] and 100 to 500 nM in assay [2].

In the case of `CS(=O)(=O)Nc1ccc2c(-c3ccc(C#N)cc3)cn(CC3CCCCC3)c2c1` [Example 77, N-[3-(4-Cyano-phenyl)-1-cyclohexylmethyl-1H-indol-6-yl]-methanesulfonamide], the Ki in assay [1] was less than 50 nM; in assay [2] it was 100 to 500 nM.

Consider `CC(C)n1cc(-c2ccc(C#N)n2C)c2ccc(NS(C)(=O)=O)cc21` [Example 78, N-[3-(5-Cyano-1-methyl-1H-pyrrol-2-yl)-1-isopropyl-1H-indol-6-yl]-methanesulfonamide], for which the Ki in assay [1] was less than 50 nM; in assay [2], 100 to 500 nM.

With `CSc1ccc(-c2cn(C(C)C)c3cc(NS(C)(=O)=O)ccc23)cc1` [Example 83, N-[1-Isopropyl-3-(4-methylsulfanyl-phenyl)-1H-indol-6-yl]-methanesulfonamide], the Ki in assay [1] is less than 50 nM; in assay [2], 500 to 1000 nM.

`Cc1ccc(-c2cn(C(C)C)c3cc(NS(C)(=O)=O)ccc23)cc1F` [Example 84, N-[3-(3-Fluoro-4-methyl-phenyl)-1-isopropyl-1H-indol-6-yl]-methanesulfonamide]: the Ki in assay [1] was less than 50 nM; in assay [2], 500 to 1000 nM.

Consider `CC(C)n1cc(-c2ccccc2)c2ccc(NS(C)(=O)=O)cc21` [Example 85, N-(1-Isopropyl-3-phenyl-1H-indol-6-yl)-methanesulfonamide], for which the Ki is less than 50 nM in assay [1] and 500 to 1000 nM in assay [2].

Consider `COc1ccc(-c2cn(C(C)C)c3cc(NS(C)(=O)=O)ccc23)cc1C` [Example 86, N-[1-Isopropyl-3-(4-methoxy-3-methyl-phenyl)-1H-indol-6-yl]-methanesulfonamide], for which the values for the Ki in assay [1] and in assay [2] were less than 50 nM and greater than 1000 nM, respectively.

In the case of `CC(C)n1cc(-c2ccc(C(N)=O)cc2)c2ccc(NS(C)(=O)=O)cc21` [Example 87, 4-(1-Isopropyl-6-methanesulfonylamino-1H-indol-3-yl)-benzamide], the Ki is less than 50 nM in assay [1] and greater than 1000 nM in assay [2].

Consider `COc1ccc(-c2cn(C(C)C)c3cc(NS(C)(=O)=O)ccc23)cn1` [Example 88, N-[1-Isopropyl-3-(6-methoxy-pyridin-3-yl)-1H-indol-6-yl]-methanesulfonamide], for which the Ki in assay [1] was less than 50 nM; in assay [2] it was greater than 1000 nM.

Consider `CC(C)n1cc(-c2ccc(O)cc2)c2ccc(NS(C)(=O)=O)cc21` [Example 93, N-[3-(4-Hydroxy-phenyl)-1-isopropyl-1H-indol-6-yl]-methanesulfonamide], for which the figures for the Ki in assay [1] and in assay [2] were less than 50 nM and 100 to 500 nM, respectively.

As a reminder, the Ki is a dissociation constant, usually derived from enzyme kinetics or from competition with a known ligand. A high value points to weaker binding.
